Data published in ChEMBL document CHEMBL1201862, “PubChem BioAssay data set” (2004).
Where “and” joins values, the source holds several entries; their conditions need not be identical. Equal values may be shown once. Calls of active or inactive are those of the source.

How the values were obtained:
[1] = molecular target: Luciferin 4-monooxygenase (Photinus pyralis, UniProt P08659); test: inhibition of purified Photinus pyralis luciferase – biochemical, luminescence, dose response (AID 1891)
[2] = Luminescence Cell-Based Dose Confirmation HTS to Identify Inhibitors of Platelet Dense Granule Release. [Related pubchem assays: 1663 (Primary HTS), 1678 (Summary of Project)]; assay type: functional
[3] = molecular target: T1, Rac GTPase-activating protein 1 (Homo sapiens, UniProt Q9H0H5); test: blockers of MgcRacGAP-driven Rac1 GTP hydrolysis – biochemical, ADP Hunter fluorescence, primary and confirmatory, confirmation (AID 624330); assay type: functional
T1 sequence (Q9H0H5 whole entry): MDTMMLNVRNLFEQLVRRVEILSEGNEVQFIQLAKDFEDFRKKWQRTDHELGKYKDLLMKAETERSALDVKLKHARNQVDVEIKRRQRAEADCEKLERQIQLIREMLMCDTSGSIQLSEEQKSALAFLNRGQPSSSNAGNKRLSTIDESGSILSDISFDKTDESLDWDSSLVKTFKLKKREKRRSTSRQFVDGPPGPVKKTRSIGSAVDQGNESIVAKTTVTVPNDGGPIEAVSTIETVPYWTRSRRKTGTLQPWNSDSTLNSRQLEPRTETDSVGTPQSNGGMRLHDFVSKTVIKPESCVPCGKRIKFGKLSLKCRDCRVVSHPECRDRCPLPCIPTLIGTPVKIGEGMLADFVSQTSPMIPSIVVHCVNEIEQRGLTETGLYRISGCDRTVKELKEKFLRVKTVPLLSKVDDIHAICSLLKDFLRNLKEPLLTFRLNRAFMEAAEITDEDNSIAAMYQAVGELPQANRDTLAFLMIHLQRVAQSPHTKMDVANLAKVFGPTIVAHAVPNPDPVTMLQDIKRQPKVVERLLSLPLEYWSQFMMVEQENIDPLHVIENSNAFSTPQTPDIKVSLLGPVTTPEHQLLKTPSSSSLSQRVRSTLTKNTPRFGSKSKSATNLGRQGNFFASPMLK

Cytochrome P450 2C9 = Cytochrome P450 2C9 (Homo sapiens, UniProt P11712)
Sequence of Cytochrome P450 2C9 (P11712 whole entry): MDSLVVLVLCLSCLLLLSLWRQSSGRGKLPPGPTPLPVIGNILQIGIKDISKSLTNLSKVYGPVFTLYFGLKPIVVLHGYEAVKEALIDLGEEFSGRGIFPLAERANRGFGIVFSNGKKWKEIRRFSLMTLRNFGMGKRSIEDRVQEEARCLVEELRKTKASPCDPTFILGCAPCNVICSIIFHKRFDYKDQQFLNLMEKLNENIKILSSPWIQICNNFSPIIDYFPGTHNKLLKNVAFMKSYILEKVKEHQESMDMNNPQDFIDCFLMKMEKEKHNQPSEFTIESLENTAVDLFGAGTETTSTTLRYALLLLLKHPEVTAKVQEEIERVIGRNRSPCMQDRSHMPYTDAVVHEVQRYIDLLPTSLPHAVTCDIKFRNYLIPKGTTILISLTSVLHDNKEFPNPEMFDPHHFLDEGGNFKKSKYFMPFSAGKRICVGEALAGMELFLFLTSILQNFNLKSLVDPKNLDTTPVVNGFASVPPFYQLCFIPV

Cytochrome P450 3A4 = Cytochrome P450 3A4 (Homo sapiens, UniProt P08684);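 also: CYP3A4 tested as one member of a cytochrome P450 panel screen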
Sequence of Cytochrome P450 3A4 (P08684 whole entry): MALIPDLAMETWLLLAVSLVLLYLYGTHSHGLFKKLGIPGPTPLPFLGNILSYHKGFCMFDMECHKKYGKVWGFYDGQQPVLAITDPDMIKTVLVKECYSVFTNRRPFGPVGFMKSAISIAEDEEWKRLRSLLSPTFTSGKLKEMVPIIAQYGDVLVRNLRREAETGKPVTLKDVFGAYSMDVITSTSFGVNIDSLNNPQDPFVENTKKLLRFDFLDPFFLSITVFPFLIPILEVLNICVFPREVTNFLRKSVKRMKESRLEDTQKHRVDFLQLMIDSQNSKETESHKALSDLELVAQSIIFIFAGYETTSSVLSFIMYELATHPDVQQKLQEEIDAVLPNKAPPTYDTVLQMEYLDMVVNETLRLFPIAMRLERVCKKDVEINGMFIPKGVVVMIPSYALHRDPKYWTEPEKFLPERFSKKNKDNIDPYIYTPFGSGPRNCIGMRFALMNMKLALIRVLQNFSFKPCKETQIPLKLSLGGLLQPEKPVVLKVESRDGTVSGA

Cytochrome P450 1A2 = molecular target: T2, Cytochrome P450 1A2 (Homo sapiens, UniProt P05177);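 also: PubChem cytochrome P450 panel assay, CYP1A2 panel member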
T2 sequence (P05177 whole entry): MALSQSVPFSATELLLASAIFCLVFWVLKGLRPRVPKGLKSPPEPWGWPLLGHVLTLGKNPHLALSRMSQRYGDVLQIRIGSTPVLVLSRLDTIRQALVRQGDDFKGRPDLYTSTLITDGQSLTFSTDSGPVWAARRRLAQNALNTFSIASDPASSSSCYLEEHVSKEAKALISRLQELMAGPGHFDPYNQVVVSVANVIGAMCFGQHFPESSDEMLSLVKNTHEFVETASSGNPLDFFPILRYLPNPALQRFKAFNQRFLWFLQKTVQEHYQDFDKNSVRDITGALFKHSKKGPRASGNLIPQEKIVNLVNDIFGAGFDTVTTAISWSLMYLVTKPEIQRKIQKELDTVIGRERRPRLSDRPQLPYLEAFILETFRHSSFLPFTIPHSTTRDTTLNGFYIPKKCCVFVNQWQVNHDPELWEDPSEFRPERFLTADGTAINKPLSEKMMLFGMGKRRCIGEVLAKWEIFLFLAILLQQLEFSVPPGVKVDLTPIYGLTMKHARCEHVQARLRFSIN

H4 = test: Luminescence Cell-Based Dose Response HTS to Identify Activators of 5'UTR Stem-Loop Driven Prion Protein mRNA Translation in H4 Neuroglioblastoma Cells. [Related pubchem assays: 1829 (Project Summary), 1814 (Primary HTS)]; assay type: functional; details: Homo sapiens
[4] = Luminescence Cell-Based Dose Confirmation HTS to Identify Activators of 5'UTR Stem-Loop Driven Alpha-Synuclein mRNA Translation in H4 Neuroglioblastoma Cells. [Related pubchem assays: 1829 (Project Summary), 1814 (Primary HTS)]; assay type: functional
[5] = Luminescence Cell-Based Dose Response HTS to Identify Activators of Luciferase Translation or Activity in H4 […] Cells. [Related pubchem assays: 1829 (Project Summary), 1814 (Primary HTS)]; assay type: functional
cells [6] = assay type: functional, cell-based
cells [7] = assay type: functional, cell-based; remark: listed apart in the source
Cytochrome P450 2C19 = Cytochrome P450 2C19 (Homo sapiens, UniProt P33261); test: Cytochrome panel assay with activity outcomes. Panel member name: p450-cyp2c19 Compounds with AC50 equal or less than 10 uM are considered active; assay type: functional; details: read-out: AC50
Sequence of Cytochrome P450 2C19 (P33261 whole entry): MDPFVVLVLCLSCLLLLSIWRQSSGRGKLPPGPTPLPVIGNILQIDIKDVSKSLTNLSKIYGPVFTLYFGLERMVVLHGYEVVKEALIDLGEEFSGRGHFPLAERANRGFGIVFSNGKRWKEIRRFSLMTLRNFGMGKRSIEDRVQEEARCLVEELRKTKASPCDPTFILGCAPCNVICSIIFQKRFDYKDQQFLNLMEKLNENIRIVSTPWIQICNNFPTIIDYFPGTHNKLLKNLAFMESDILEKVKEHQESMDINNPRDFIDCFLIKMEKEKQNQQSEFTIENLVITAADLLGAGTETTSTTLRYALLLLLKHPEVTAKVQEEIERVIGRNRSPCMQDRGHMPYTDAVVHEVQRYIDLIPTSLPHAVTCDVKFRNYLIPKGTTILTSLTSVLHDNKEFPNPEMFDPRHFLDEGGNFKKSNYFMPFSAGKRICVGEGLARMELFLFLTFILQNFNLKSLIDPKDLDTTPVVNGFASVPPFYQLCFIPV

Cytochrome P450 2D6 = Cytochrome P450 2D6 (Homo sapiens, UniProt P10635);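 also: CYP2D6 member of a cytochrome P450 panel assay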
Sequence of Cytochrome P450 2D6 (P10635 whole entry): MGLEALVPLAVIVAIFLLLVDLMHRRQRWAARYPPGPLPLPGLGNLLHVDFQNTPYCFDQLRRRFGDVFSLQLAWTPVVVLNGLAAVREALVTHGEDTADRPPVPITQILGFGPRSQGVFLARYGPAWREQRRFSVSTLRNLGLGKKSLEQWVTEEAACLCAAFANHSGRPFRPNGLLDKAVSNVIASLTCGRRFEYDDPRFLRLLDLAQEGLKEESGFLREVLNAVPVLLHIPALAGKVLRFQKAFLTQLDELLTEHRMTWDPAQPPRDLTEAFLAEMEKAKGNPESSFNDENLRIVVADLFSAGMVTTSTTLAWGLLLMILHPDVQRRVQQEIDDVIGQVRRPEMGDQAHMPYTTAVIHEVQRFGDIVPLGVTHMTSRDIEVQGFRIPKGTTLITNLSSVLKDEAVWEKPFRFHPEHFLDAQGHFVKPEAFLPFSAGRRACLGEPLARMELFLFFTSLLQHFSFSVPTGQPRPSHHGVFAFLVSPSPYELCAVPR

[8] = molecular target: T3, Corticotropin-releasing factor receptor 2/Corticotropin-releasing factor-binding protein (Homo sapiens, UniProt P24387+Q13324); test: activators of CRF receptor 2 with binding protein – uHTS hits, confirmation (AID 602473); assay type: functional; details: read-out: EC50_Mean
T3 sequence (Q13324 whole entry): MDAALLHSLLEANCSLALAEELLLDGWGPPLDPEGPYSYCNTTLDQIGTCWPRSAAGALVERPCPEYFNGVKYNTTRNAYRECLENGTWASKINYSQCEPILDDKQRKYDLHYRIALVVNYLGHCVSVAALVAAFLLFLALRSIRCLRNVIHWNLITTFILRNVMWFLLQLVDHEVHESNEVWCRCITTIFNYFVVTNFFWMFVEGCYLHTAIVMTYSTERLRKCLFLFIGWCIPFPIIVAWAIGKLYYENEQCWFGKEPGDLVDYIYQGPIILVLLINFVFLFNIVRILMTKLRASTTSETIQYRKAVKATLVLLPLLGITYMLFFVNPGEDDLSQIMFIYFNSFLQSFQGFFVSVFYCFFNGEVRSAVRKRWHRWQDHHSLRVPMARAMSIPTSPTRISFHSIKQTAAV
T3 sequence (P24387 whole entry): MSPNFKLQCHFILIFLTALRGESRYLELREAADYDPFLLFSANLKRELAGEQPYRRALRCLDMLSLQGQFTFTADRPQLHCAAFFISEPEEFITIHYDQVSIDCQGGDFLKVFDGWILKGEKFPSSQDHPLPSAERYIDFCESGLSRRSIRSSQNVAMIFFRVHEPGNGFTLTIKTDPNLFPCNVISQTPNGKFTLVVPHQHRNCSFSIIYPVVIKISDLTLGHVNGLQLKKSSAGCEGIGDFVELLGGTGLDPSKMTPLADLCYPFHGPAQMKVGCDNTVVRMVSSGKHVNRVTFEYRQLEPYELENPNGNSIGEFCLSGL

Sequence of Luciferin 4-monooxygenase (P08659 whole entry): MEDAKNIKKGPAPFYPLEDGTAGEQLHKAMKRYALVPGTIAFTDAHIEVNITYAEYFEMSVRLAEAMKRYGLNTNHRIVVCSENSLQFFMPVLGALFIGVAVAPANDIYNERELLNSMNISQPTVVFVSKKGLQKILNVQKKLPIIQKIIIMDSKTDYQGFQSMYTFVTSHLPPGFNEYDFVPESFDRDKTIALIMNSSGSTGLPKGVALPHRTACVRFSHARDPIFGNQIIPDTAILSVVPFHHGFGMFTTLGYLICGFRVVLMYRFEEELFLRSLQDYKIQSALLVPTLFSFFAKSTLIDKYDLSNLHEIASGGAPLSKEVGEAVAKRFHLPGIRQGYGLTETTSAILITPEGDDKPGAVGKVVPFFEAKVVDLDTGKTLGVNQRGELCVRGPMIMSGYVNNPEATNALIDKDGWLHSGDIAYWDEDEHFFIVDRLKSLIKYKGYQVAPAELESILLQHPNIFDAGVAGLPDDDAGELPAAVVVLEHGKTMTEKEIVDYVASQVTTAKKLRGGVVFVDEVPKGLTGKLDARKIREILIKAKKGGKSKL

SMILES: CN(C)S(=O)(=O)c1ccc(Cl)c(NC(=O)COc2ccccc2[N+](=O)[O-])c1
- EC50 [1]: > 112 µM (not active)
- EC50 [2]: > 112 µM (not active)

SMILES: NC(CCCCc1ccccc1)c1cccc2ccccc12 (configuration not stated)
- EC50 [1]: > 112 µM (not active)
- EC50 [2]: 24.6 µM (active)

SMILES: CCCC(=O)C1=C(N2CCCCC2)CC(C)(C)C(C(=O)OC)C1=O (configuration not stated)
- EC50 [1]: > 112 µM (not active)
- EC50 [2]: > 112 µM (not active)

SMILES: CCC1(c2ccccc2)NC(=O)N(CC(=O)Nc2ccc(N3CCCC3)cc2C)C1=O (configuration not stated)
- IC50 [3]: 112 µM (active)

SMILES: Cc1ccc2c(c1)NCC(C(=O)NC1CCCCC1)O2 (configuration not stated)
- AC50 (Cytochrome P450 2C9): 39.8 µM (inconclusive)
- AC50 (Cytochrome P450 3A4): 31.6 µM (inconclusive)
- AC50 (Cytochrome P450 1A2): 11.2 µM (inconclusive)

SMILES: CCOC(=O)C1CCCN(C(=O)c2ccc3oc(Cc4ccccc4)nc3c2)C1 (configuration not stated)
- EC50 (H4): 36.4 µM (active)
- EC50 [4]: 13.9 µM (active)
- EC50 [1]: > 112 µM (not active)
- EC50 [2]: > 112 µM (not active)
- EC50 [5]: 16.2 µM (active)

SMILES: O=C(NC(=S)Nc1cccc2c(O)cccc12)c1ccco1
- IC50 [3]: 32.3 µM (active)

SMILES: Cc1ccc(OCCCN2CCCC2)c(C)c1
- IC50 [3]: 105 µM (active)

SMILES: O=[N+]([O-])c1ccc(/N=C/c2ccc(Br)c([N+](=O)[O-])c2)cc1
- EC50 (cells [6]): > 350 µM (not active)
- EC50 (cells [7]): > 350 µM (not active)

SMILES: COc1cc(NC(=S)NC(=O)c2c(OC)cccc2OC)ccc1NC(=O)c1cccs1
- AC50 (Cytochrome P450 2C9): 1.41 µM (inconclusive)

SMILES: O=C(C1CCCN(Cc2cccnc2)C1)N1CCCCC1 (configuration not stated)
- IC50 [3]: 74 µM (active)

SMILES: CC(C)C[C@H]1C(=O)N2CCC[C@@H]2[C@]2(O)O[C@](NC(=O)[C@H]3C=C4c5cccc6[nH]c(Br)c(c56)C[C@H]4N(C)C3)(C(C)C)C(=O)N12
- AC50 (Cytochrome P450 2C9): 12.6 µM (inconclusive) and 15.8 µM (inconclusive)

SMILES: COc1cc(Cl)c(C)cc1NC(=O)CNC(=O)Cn1cnc2ccccc2c1=O
- AC50 (Cytochrome P450 2C9): 10 µM (inconclusive)

SMILES: CCOC(=O)c1cc2c(=O)n3ccccc3nc2n(CCOC)/c1=N\C(=O)C(C)(C)C
- AC50 (Cytochrome P450 2C9): 17.8 µM (inconclusive)
- AC50 (Cytochrome P450 3A4): 31.6 µM (inconclusive)
- AC50 (Cytochrome P450 2C19): 20 µM (inconclusive)

SMILES: COc1ncnc2sc(-c3ccccc3)cc12
- EC50 [1]: 2.4 µM (active)
- EC50 [2]: 6.33 µM (active)

SMILES: COc1ccccc1OCc1nnc(SCC(=O)NCc2ccco2)n1-c1ccccc1
- EC50 (cells [6]): > 350 µM (not active)
- EC50 (cells [7]): > 350 µM (not active)

SMILES: Cc1c(NC(=O)CN2CC(C)OC(C)C2)c(=O)n(-c2ccccc2)n1C (configuration not stated)
- IC50 [3]: 83.1 µM (active)

SMILES: COc1ccc(-c2noc(CCCC(=O)NCCc3ccccc3)n2)cc1OC
- AC50 (Cytochrome P450 2C9): 4.47 µM (inconclusive)
- AC50 (Cytochrome P450 2D6): 22.4 µM (inconclusive)
- AC50 (Cytochrome P450 1A2): 15.8 µM (inconclusive)

SMILES: Cc1ccc2cccc(S(=O)(=O)N3CCCc4ccccc43)c2n1
- EC50 [8]: 11.9 µM (active)
- EC50 [1]: 34 µM (active)
- EC50 [2]: 15.8 µM (active)
